The target in the test is T1, FBXL10 (Homo sapiens, UniProt Q8NHM5).
T1 construct: purchased BPS Bioscience 50120
T1 sequence (Q8NHM5 1-650): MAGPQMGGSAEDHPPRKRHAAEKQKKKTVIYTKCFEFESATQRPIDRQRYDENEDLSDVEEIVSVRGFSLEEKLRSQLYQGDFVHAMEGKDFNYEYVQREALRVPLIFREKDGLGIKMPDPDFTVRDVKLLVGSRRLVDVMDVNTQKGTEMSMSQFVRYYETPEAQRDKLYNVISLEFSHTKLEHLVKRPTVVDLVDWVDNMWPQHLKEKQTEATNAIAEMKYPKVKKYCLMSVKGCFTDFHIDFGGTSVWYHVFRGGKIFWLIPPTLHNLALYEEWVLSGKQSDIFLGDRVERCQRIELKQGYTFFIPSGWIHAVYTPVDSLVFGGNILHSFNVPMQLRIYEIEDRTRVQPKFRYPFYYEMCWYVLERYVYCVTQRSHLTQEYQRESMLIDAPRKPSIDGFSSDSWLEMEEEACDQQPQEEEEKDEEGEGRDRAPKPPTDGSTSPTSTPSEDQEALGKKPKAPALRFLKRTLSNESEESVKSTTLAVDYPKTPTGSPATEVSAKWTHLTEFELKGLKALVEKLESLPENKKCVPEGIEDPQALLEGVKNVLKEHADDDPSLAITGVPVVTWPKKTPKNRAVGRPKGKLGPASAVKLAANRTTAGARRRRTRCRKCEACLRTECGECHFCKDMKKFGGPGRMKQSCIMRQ
As to the kind of experiment: FBXL10 in vitro enzyme inhibition assay (AlphaScreen). It counts as biochemical. To be noted: 0.3 nM FBXL10, 30 nM H3K36me2-biotin peptide, 0.2 μM alpha-ketoglutaric acid. An excerpt: This assay determines the ability of a test compound to inhibit FBXL11, FRXL10, and PHF8 demethylase activity. Baculovirus-expressed FBXL11 (GenBank Accession # NM_012308, AA1-1162) was purchased from BPS Bioscience (Cat #50102). Baculovirus-expressed FBXL10 (GenBank Accession # NM_032590, AA 1-650) was purchased from BPS Bioscience (Cat #50120), Baculovirus-expressed PHF8 (GenBank Accession NP_055922.1) was purchased from Active Motif (Cat #31435).
The ability of test compounds to inhibit the activity of FBXM10 was determined in 384-well plate format under the following reaction conditions: 0.3 nM FBXL10, 30 nM H3K36me2-biotin labeled peptide (Anaspec cat #64442), 0.2 μM alpha-ketoglutaric acid in assay buffer of 50 mM HEPES, pH 7.3, 0.005% Brij35, 0.5 mM TCEP, 0.2 mg/ml BSA, 50 μM sodium L-ascorbate, 5 μM ammonium ironll sulfate. Reaction product was determined quantitatively by AlphaScreen detection after the addition of detection reagents anti-H3K36me1 antibody, AlphaScreen® Streptavidin-coated Donor beads, and AlphaScreen® Protein A Acceptor beads in 50 mM HEPES, pH 7.3, 10 mM NaCl, 0.005% Brij35, 5 mM EDTA, 2 mg/ml BSA to a final 10 μg/ml beads.
The assay reaction was initiated by the following: 3 μl of the mixture of 90 nM H3K36me2-biotin labeled peptide and 0.6 μM alpha-ketoglutaric acid with 3 μl of 11-point serial diluted inhibitor in 3% DMSO were added to each well of 384-well Proxiplate (Perkin Elmer), followed by e addition of 3 μl of 0.9 nM FBXL10 to initiate the reaction. The reaction mixture was incubated at room temp for 1 hr. and terminated by the addition of 3 μl of appropriate dilution of anti-H3K36me1 antibody in 50 mM HEPES, pH 7.3, 10 mM NaCl, 0.005% Brij35, 5 mM EDTA, and 2 mg/ml BSA. […] Plates were read by EnVision Multilabel Reader in AlphaScreen mode after minimum 2 hr incubation at room temp. […]
The ability to inhibit demethylase activity was quantified and the respective IC50 value was determined for substituted triazolylpyridine derivative compounds. […]
In general terms: Alpha assays give light when donor and acceptor beads are brought close together.
For the compound `Fc1cnccc1-c1nn[nH]c1C(F)(F)F` [Example 1, 3-fluoro-4-[5-(trifluoromethyl)-1H-1,2,3-triazol-4-yl]pyridine], the IC50 (in general, the concentration that inhibits the measured activity by half) lay within 100 to 1000 nM. For `Fc1ccc(Cl)cc1Nc1cnccc1-c1nn[nH]c1C(F)(F)F` [Example 2, N-(5-chloro-2-fluorophenyl)-4-[5-(trifluoromethyl)-1H-1,2,3-triazol-4-yl]pyridin-3-amine], the IC50 is 1000 to 10000 nM. `FC(F)(F)c1[nH]nnc1-c1ccncc1NCC1CCCc2ccccc21` (stereo not drawn) [Example 3, N-[(1,2,3,4-tetrahydronaphthalen-1-yl)methyl]-4-[5-(trifluoromethyl)-1H-1,2,3-triazol-4-yl]pyridine-3-amine] returned a half-maximal inhibitory concentration (IC50) of 1000 to 10000 nM.

(Values after patent US10870634B2, “Histone demethylase inhibitors” (CELGENE QUANTICEL RESEARCH, INC., priority 2016, dated 2020).)
